From patent US12421276B2 (priority 2016, dated 2025)
“And” between values parts separate entries of the source, which are not always exact repeats. Identical values can stand only once. Like-named read-outs stand apart in the source and are kept apart here. Where a SMILES comes first, the peptide text is derived from it. [ ]: non-standard residue; d: D form. The star is where a group is joined. Hexanoyl = CCCCCC(=O)*; Ahx = NCCCCCC(=O)O

Columns and labels:
[1] = Plasma stability study, human plasma; format: in vitro ADME
Protocol: (§1) Human and rat plasma (K2 EDTA) were obtained from Bioreclamation.
(§2) Compounds were dissolved as 0.3 mM DMSO stocks. Compounds were transferred to the plasma at 1 μM on a 96-well deep well plate. After mixing, samples were transferred to several 96-well plates (25 μL/well), and incubated at 37° C. The extent of metabolism was calculated as the disappearance of the test compound, compared to the 0-min control reaction incubations. Propantheline was included as a positive control to verify assay performance.
(§3) At each of the time points, 150 μL of quench solution (50% acetonitrile, 50% methanol with 0.05% formic acid) with internal standard (bucetin for positive ESI mode and warfarin for negative ESI mode) was transferred to each well. Plates were sealed and centrifuged at 4° C. for 15 minutes at 4000 rpm. The supernatant was transferred to fresh plates for LC/MS/MS analysis.
(§4) Elution conditions are detailed in the table below.
(§5) Initial rates of the clearance of test compounds were calculated using linear regression of semi-log plot of % remaining of compounds versus time. The elimination rate constant (equals to −slope) of the linear regression was then used to determine t½ values.

Caco-2 cells = assay: Caco-2 permeability study with or without P-gp inhibitor GF120918; details: for Abs. Quotient: (Papp A-B with inhibitor − without inhibitor)/Papp A-B with inhibitor; for Caco-2 Cells Permeability Recovery Rate: 1 hr, pH 7.4
[2] = Plasma stability study, rat plasma; format: in vitro ADME
Protocol: as §1, §2, §3, §4, §5

[3] = Metabolic stability in simulated gastric fluid (SGF), pH 1.2, with or without pepsin; format: in vitro ADME
Protocol: (§6) Metabolic Stability in SIF and SGF (Simulated Intestinal and Gastric Fluid)
Buffer 1=SGF without enzyme
Buffer 2=SGF with 0.32% pepsin
(§7) SIF was prepared freshly with 8.7 mM NaOH, 28.65 mM NaH2PO4, 105.85 mM NaCl, with a final pH of 6.8. SGF was prepared freshly with 34.2 mM NaCl, with a final pH of 1.2. Enzymes such as pepsin or pancreatin were added to some buffers. Human and rat plasma (K2 EDTA) were purchased from BioreclamationIVT.
(§8) Compounds were dissolved as 1.5 mM DMSO stocks. Compounds were transferred to SIF, SGF, or plasma at 5 μM on a 96-well deep well plate. After mixing, samples were transferred to several 96-well plates (25 μL/well), and incubated at 37° C. The extent of metabolism was calculated as the disappearance of the test compound, compared to the 0-min control reaction incubations. Candesartan Cilexetil and omeprazole were included as positive controls for SIF and SGF, respectively, to verify assay performance.
as §3, with “(100% acetonitrile” for “(50% acetonitrile, 50% methanol”, “0.1%” for “0.05%”
as §4, §5

[4] = Metabolic stability in simulated intestinal fluid (SIF), pH 6.8, with or without pancreatin; format: in vitro ADME
Protocol: as §6
Buffer 3=SIF without enzyme
Buffer 4=SIF with 1% pancreatin
as §7, §8
as §3, with “(100% acetonitrile” for “(50% acetonitrile, 50% methanol”, “0.1%” for “0.05%”
as §4, §5

[5] = format: in vivo, rat
Protocol: • 1. Eight (8) male JVC SD rats (purchased from Charles River Lab) were monitored daily for body condition and health status during the 3-5 days acclimation period. The rats were randomly assigned into […] (n=4). • 2. […] The dosed rats were individually placed into a metabolic cage, and have access to food and water at all times. The urine from each rat was collected daily from the metabolic cages, and kept in dry ice. • 4. At predose (0 min), 5 min, 15 min, 30 min, 1 hr, 2 hr, 8 hr, and 24 hr post dosing, approximately 200 ul blood samples were collected from each rat and transferred to EDTA tubes. • 5. The blood samples in EDTA vials were centrifuged at 4° C. and 6,000 rpm for 10 minutes to generate ˜100 μl of plasma per sample. Blood samples were processed as quickly as possible and remain no longer than 2 min at room temperature and no longer than 15 minutes at 4° C. prior to processing. • 6. All samples were transferred for bioanalytic assay using LCMS

[6] = +GF120918 (10 μM), 10 μM compound
[7] = Rat, PO, 10 mg/kg equiv., n = 4, analyte: Parent (BASE STRUCTURE)
[8] = rat, dosed as Base Structure 20 mg/kg, analyte Parent (Base Structure), Average
[9] = rat, dosed as Base Structure 20 mg/kg, analyte Parent (Base Structure), Combined (average ± std. dev.)
[10] = rat, dosed as Base Structure 20 mg/kg, analyte Parent (Base Structure), individual animals

## CCCCCC(=O)NC(Cc1ccc(OC(=O)CN2CCCC2)cc1)C(=O)NC(C(=O)NCCCCCC(N)=O)C(C)CC (stereo not shown) [Compound A24]
[1]; human, plasma
  Plasma Stability Half-Life: 7.3 min
Caco-2 cells
  Abs. Quotient: 0.88
Caco-2 cells; [6]
  Caco-2 Cells Permeability Recovery Rate: 72%
Caco-2 cells; −GF120918, 10 μM compound
  Caco-2 Cells Permeability Recovery Rate: 72%
[2]; rat, plasma
  Plasma Stability Half-Life: 64.2 min

## CCCCCC(=O)NC(Cc1ccc(OC(=O)CN(C)C)cc1)C(=O)NC(C(=O)NCCCCCC(N)=O)C(C)CC (stereo not shown) [Compound A25]
[3]; simulated gi fluid, pH 1.2
  SGF Stability (pH 1.2) Half-Life (min): 389.4 min
[1]; human, plasma
  Plasma Stability Half-Life: 10.1 min
Caco-2 cells
  Abs. Quotient: 0.77
Caco-2 cells; [6]
  Caco-2 Cells Permeability Recovery Rate: 83%
Caco-2 cells; −GF120918, 10 μM compound
  Caco-2 Cells Permeability Recovery Rate: 91%
[4]; simulated gi fluid, pH 6.8
  SIF Stability (pH 6.8) Half-Life (min): 34.7 min
[2]; rat, plasma
  Plasma Stability Half-Life: 8.2 min

## CCCCCC(=O)N[C@@H](Cc1ccc(O)cc1)C(=O)N[C@H](C(=O)NCCCCCC(N)=O)[C@@H](C)CC [Base Structure, N-hexanoic-L-tyrosine-L-isoleucine-(6)-aminohexanoic amide, reference compound] (Hexanoyl-Tyr-Ile-[Ahx]-NH2)
[3]; +Pepsin (0.32%), 5 μM, 37° C.
  SGF Stability (pH 1.2) Half-Life (min): 26.0 min
  SGF Stability (pH 1.2) 0 min: 100%
  SGF Stability (pH 1.2) 60 min: 13%
  SGF Stability (pH 1.2) 240 min: 0.2%
[3]; −Pepsin, 5 μM, 37° C.
  SGF Stability (pH 1.2) Half-Life (min): Neg.
  SGF Stability (pH 1.2) 0 min: 100%
  SGF Stability (pH 1.2) 60 min: 127%
  SGF Stability (pH 1.2) 240 min: 122%
[1]; Human plasma, 1 μM, 37° C.
  Plasma Stability Half-Life: 12558.0 min
[1]; Human plasma, 1 μM, 37° C., 0 min
  Plasma Stability (% Parent Remaining) 0 min: 100%
[1]; Human plasma, 1 μM, 37° C., 60 min
  Plasma Stability (% Parent Remaining) 60 min: 98%
[1]; Human plasma, 1 μM, 37° C., 120 min
  Plasma Stability (% Parent Remaining) 120 min: 102%
[1]; Human plasma, 1 μM, 37° C., 240 min
  Plasma Stability (% Parent Remaining) 240 min: 98%
Caco-2 cells
  Abs. Quotient: 0.84 and 0.82
Caco-2 cells; [6]
  Caco-2 Cells Permeability Recovery Rate: 83% and 96%
Caco-2 cells; −GF120918, 10 μM compound
  Caco-2 Cells Permeability Recovery Rate: 87% and 91%
[5]; [7]
  AUC0-24: 0.4 ± 0.2 ng·h/mL
  Cmax: 0.9 ± 0.5 ng/mL
  Tmax: 24 ± 30 min
[5]; [8]
  AUC 0-t: 0.4468 ng·h/mL
  Cmax: 0.9267 ng/mL
  Tlag: 0 h
  Tmax: 26.6 min
[5]; [9]
  AUC 0-t: 0.4 ± 0.2 ng·h/mL
  Cmax: 0.9 ± 0.5 ng/mL
  Tlag: 0 ± 0 h
  Tmax: 24 ± 30 min
[5]; [10]
  AUC 0-t: 0.6164 ng·h/mL and 0.5175 ng·h/mL and 0.2066 ng·h/mL
  Cmax: 0.689 ng/mL and 1.54 ng/mL and 0.551 ng/mL
  Tlag: 0 h
  Tmax: 4.8 min and 15 min and 60 min
[4]; −Pancreatin, 5 μM, 37° C.
  SIF Stability (pH 6.8) Half-Life (min): Neg.
[4]; −Pancreatin, 5 μM, 37° C., 0 min
  SIF Stability (pH 6.8) 0 min: 100%
[4]; −Pancreatin, 5 μM, 37° C., 60 min
  SIF Stability (pH 6.8) 60 min: 119%
[4]; −Pancreatin, 5 μM, 37° C., 240 min
  SIF Stability (pH 6.8) 240 min: 113%
[2]; Rat plasma, 1 μM, 37° C.
  Plasma Stability Half-Life: 1095.1 min
[2]; Rat plasma, 1 μM, 37° C., 0 min
  Plasma Stability (% Parent Remaining) 0 min: 100%
[2]; Rat plasma, 1 μM, 37° C., 60 min
  Plasma Stability (% Parent Remaining) 60 min: 87%
[2]; Rat plasma, 1 μM, 37° C., 120 min
  Plasma Stability (% Parent Remaining) 120 min: 89%
[2]; Rat plasma, 1 μM, 37° C., 240 min
  Plasma Stability (% Parent Remaining) 240 min: 83%
